The text below walks through data of PubChem BioAssay (NCI).

What all share (experiment): DTP human tumour cell line panel, 48 h
Experiment [1] deals with CCRF-CEM leukemia.
Experiment [2] has as its system U251 CNS.
The subject of experiment [3] is OVCAR-3 ovarian.
Experiment [4] deals with DU-145 prostate.
In experiment [5] the test system is SNB-75 CNS.
Experiment [6] concerns HCT-15 colon.
The test system of experiment [7] is HCT-116 colon.
The subject of experiment [8] is MDA-N.

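Method: 48-hour compound exposure of cells in 96-well plates, five concentrations, linear interpolation of endpoints. TGI is the concentration that stops growth completely.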

Take `CC(C)c1ccc(/C=C2/C=C(c3ccc4ccccc4c3)OC2=O)cc1`: the TGI (commonly the concentration giving total growth inhibition) was 20 µM in experiment [1]; greater than 100 µM in experiment [2]; greater than 100 µM in experiment [3]; greater than 100 µM in experiment [4]; greater than 100 µM in experiment [5]; greater than 100 µM in experiment [6]. Besides, the TGI in experiment [7] was greater than 100 µM.
Take `Cc1ccccc1-n1c(=O)c2ncn(CCCl)c2n(-c2ccccc2C)c1=S`: the TGI in experiment [1], in experiment [2], in experiment [3], in experiment [4], in experiment [5] and in experiment [6] was greater than 100 µM throughout. The compound also yielded a total growth inhibition concentration (TGI) in experiment [7] greater than 100 µM.
In the case of `CCC[C@@H](O)C[C@@H]1CCC[C@H](C[C@@H](O)CC)N1C`, the TGI in experiment [1], in experiment [8], in experiment [2], in experiment [3], in experiment [4] and in experiment [6] was greater than 100 µM throughout. In experiment [7], this compound gave a TGI greater than 100 µM.
`O=S1(=O)NC(=NCc2c[nH]c3ccccc23)N(c2ccccc2)c2ccncc21`: the total growth inhibition concentration (TGI) in experiment [1] is greater than 100 µM; in experiment [2], greater than 100 µM; in experiment [3] it was greater than 100 µM; in experiment [4], greater than 100 µM; in experiment [5], 43.3 µM; in experiment [6] it was greater than 100 µM. In addition, the TGI in experiment [7] is greater than 100 µM.
Regarding `COc1cc([C@@H]2c3cc4c(cc3[C@@H](Nc3ccc([N+](=O)[O-])cc3C(=O)c3ccccc3)[C@H]3COC(=O)[C@H]23)OCO4)cc(OC)c1OC`, the TGI in experiment [1], in experiment [2], in experiment [3], in experiment [4], in experiment [5] and in experiment [7] was greater than 100 µM throughout.
With `O=[N+]([O-])/C(C(Cl)=C(Cl)Cl)=C(\SCc1ccccc1)N1CCCCC1`, the TGI in experiment [1] was 30.5 µM; in experiment [8], 50.3 µM; in experiment [2], greater than 100 µM; in experiment [3], 34.6 µM; in experiment [4], greater than 100 µM; in experiment [6], 49.7 µM. The compound also had a TGI in experiment [7] of 31.3 µM.
Consider `CCc1ccc(CCN2CCCCC2)nc1`, for which the concentration for total growth inhibition (TGI) in experiment [1], in experiment [8], in experiment [2], in experiment [3], in experiment [4] and in experiment [6] was greater than 100 µM each time. The compound also came in with a TGI in experiment [7] greater than 100 µM.
Take `O=c1[nH]cc(N=Cc2cc(Cl)cc(Cl)c2O)c(=O)[nH]1`: the TGI in experiment [1] was 99 µM; in experiment [8] it was 93.1 µM; in experiment [2] it was greater than 100 µM; in experiment [3] it was 47.1 µM; in experiment [4], 60.4 µM; in experiment [6], greater than 100 µM. The compound further gave a TGI in experiment [7] of 43.3 µM.
With `O=C(Cc1cccs1)N[C@@H]1C(=O)N2C(C(=O)OC(c3ccccc3)c3ccccc3)=C(CO)CS[C@H]12`, the concentration for total growth inhibition (TGI) in experiment [1], in experiment [8], in experiment [2], in experiment [3], in experiment [4] and in experiment [6] was greater than 100 µM in each case. Moreover, in experiment [7], the TGI was greater than 100 µM.
For `Cc1cn(C2CC(N(O)C(N)=O)C(CO)O2)c(=O)[nH]c1=O` (stereo not given), the TGI in experiment [8], in experiment [2], in experiment [3], in experiment [4], in experiment [6] and in experiment [7] was greater than 100 µM in each case.
Take `COc1ccc(CNc2nc(NCc3ccc(OC)c(OC)c3)nc(NC3CCCCC3)n2)cc1`: the TGI in experiment [1] is greater than 100 µM; in experiment [2] it was greater than 100 µM; in experiment [3], greater than 100 µM; in experiment [4], greater than 100 µM; in experiment [5], greater than 100 µM; in experiment [6], 5.64 µM. The compound further gave a TGI in experiment [7] greater than 100 µM.
For `CC[C@@]1(O)C(=O)OCc2c1cc1n(c2=O)Cc2c-1nc1ccccc1c2/C=N\NC(=O)CN`, the TGI was greater than 100 µM in experiment [8]; greater than 61.5 µM in experiment [2]; greater than 91 µM in experiment [3]; 6.21 µM in experiment [5]; greater than 100 µM in experiment [6]; 16.1 µM in experiment [7].
For `COC(=O)c1cc2c(n1S(=O)(=O)c1ccc(C)cc1)C(=O)C(=O)c1[nH]cc(C(=O)OCc3ccccc3)c1-2`, the TGI in experiment [1] came to 1.05 µM; in experiment [2], 0.809 µM; in experiment [3], 0.0913 µM; in experiment [4] it was 0.276 µM; in experiment [5] it was 0.3 µM; in experiment [6] it was 0.256 µM. This compound also returned a TGI in experiment [7] of 0.247 µM.
With `COc1cc2c(cc1OC)C(c1ccccc1CCCCl)=NCC2`, the TGI in experiment [1], in experiment [2], in experiment [3], in experiment [4], in experiment [5] and in experiment [6] was greater than 100 µM in each case. The compound also gave a TGI in experiment [7] greater than 100 µM.
